From patent publication US20100241219A1, “MEDICAMENT DELIVERY ARTICLE, ACCESSORY & SYSTEM” (ABBEYMOOR MEDICAL , INC, priority 2005, published 2010)

What was measured:
[1] = Dye penetration from polyurethane coating on silicone sheets into calf liver tissue; type: in vitro ADME; details: 1% dye in TPU matrix on silicone rubber sheet placed against calf liver for 24 or 48 hours
Description: Mitoxantrone, and ciprofloxacin were likewise tested.
Dyes and drugs were first coated onto silicone rubber sheets as droplets, and dried at 70° C. overnight. To gain a first approximation of the ability of the dyes to penetrate tissue, the sheets were placed against the outer membrane of calf liver, either for 24 or 48 hours. The tissue was placed on top of the sheet and supplied with nothing more that the pressure of the tissue against the sheet.

[2] = Dye penetration from coated stents into excised human prostate tissue; details: dye bands on stent in excised prostate, 37° C., after 48 hours
Description: As to materials, acidic, basic or lipophilic dyes, with molecular weights in the range of 3-400, were used, including: crystal violet (MW 408); basic Nile blue (MW 300); Nile red lipophilic; oil red O lipophilic; erythrosin (MW 890) acidic; and, methylene blue (MW 319) acidic. Mitoxantrone, and ciprofloxacin were likewise tested. The dyes and agents were mixed in a thermoplastic polyurethane (TPU) matrix comprising of 30/70 weight ratio of Carbothane® 72D, an aliphatic, polycarbonate based TPU, to Tecophil®, a hydrophilic, aliphatic, polyether-based TPU (Noveon, Inc.) in a 50/50 mixture of DMAC and THF. The polymers were prepared, 5% by weight, with dyes or agents added to the mixture as an additional 1% by weight.
Human prostate tissue was obtain postmortem, and within 24 hours thereof, and flash froze. The tissue was thereafter thawed at ambient temperature, and used within 12 hours. The tissue was not fixed.
Six dyes, namely, methylene blue, crystal violet, a combination of Nile blue and Nile red, oil red O, and erythrosin were coated onto two stents in the form of 3 mm bands or rings. One stent was coated with both mitoxantrone, and ciprofloxacin. Thereafter, the stents were placed in a phosphate buffered Ringer's solution with 1% virocide into excised prostates for 24 and 48 hours at 37° C. […]

penetration / staining of liver tissue [1] | staining of prostatic tissue [2] | SMILES
only mildly stained the tissue |  | CCN(CC)c1ccc2nc3c4ccccc4c(=O)cc-3oc2c1 [Nile red]
 | approximately equivalent | O.O=C([O-])c1ccccc1-c1c2cc(I)c(=O)c(I)c-2oc2c(I)c([O-])c(I)cc12.[Na+].[Na+] [erythrosin]
only mildly stained the tissue | staining the least | Cc1ccc(C)c(N=Nc2cc(C)c(N=Nc3c(O)ccc4ccccc34)cc2C)c1 [oil red O]

SMILES | penetration / staining of liver tissue [1] | staining of prostatic tissue [2]
CN(C)c1ccc(C(=C2C=CC(=[N+](C)C)C=C2)c2ccc(N(C)C)cc2)cc1 [crystal violet] | penetrated the tissue to the greatest extent | 
